Test results published in patent publication US10238621B2, “9,10-α,α-OH-taxane analogs and methods for production thereof” (priority 2003, dated 2019).

How the values were obtained:
Type in all cases: cell-based
[1] = test system: Neuroblastoma SK-N-AS; experiment: Inhibition of cell growth, Neuroblastoma SK-N-AS (MDR −, tubulin wild type)
[2] = test system: Ovarian Carcinoma 1A9PTX10; experiment: Inhibition of cell growth, Ovarian Carcinoma 1A9PTX10 (MDR +, tubulin mutant)
[3] = test system: Squamous Cell Carcinoma FADU; experiment: Inhibition of cell growth, Squamous Cell Carcinoma FADU (MDR −, tubulin wild type); conditions: concentration 0.05 ug/mL
[4] = test system: Breast Cancer MCF-7 NCI-AR; experiment: Inhibition of cell growth, Breast Cancer MCF-7 NCI-AR (MDR +, tubulin wild type); conditions: for Inhibition: MCF-7 NCI-AR
[5] = test system: MDR sensitive cancer cell lines; experiment: Inhibition of cell growth against MDR sensitive cancer cell lines; conditions: result in words
[6] = Homo sapiens, MCF7, MCF-7 NCI-AR, concentration 0.5 ug/mL

CC(=O)O[C@H]1C(=O)[C@@]2(C)[C@H]([C@H](OC(=O)c3ccccc3)[C@]3(O)C[C@H](OC(=O)[C@H](O)[C@@H](NC(=O)c4ccccc4)c4ccccc4)C(C)=C1C3(C)C)[C@]1(OC(C)=O)CO[C@@H]1C[C@@H]2O [Paclitaxel, reference compound] gave an Inhibition ([1]; concentration 0.1 ug/mL) of 54%, an Inhibition ([2]; 1A9PTX10, concentration 5 ug/mL) of 55% and an Inhibition [3] of 47%. It also gave an Inhibition ([4]; concentration 40 ug/mL) of 55%.
With C=CC1O[C@H]2C[C@H]3OC[C@@]3(OC(C)=O)[C@H]3[C@H](OC(=O)c4ccccc4)[C@]4(O)C[C@H](OC(=O)[C@H](O)[C@@H](NC(=O)c5ccccc5)c5ccccc5)C(C)=C([C@H](OC(C)=O)[C@H](O1)[C@]23C)C4(C)C (stereo partly drawn) [TPI 251] the inhibition at 0.25 µg/mL ([2]; Homo sapiens, 1A9/ptx-10, 1A9PTX10, concentration 0.25 ug/mL) was 93%, the inhibition at 0.5 µg/mL ([2]; Homo sapiens, 1A9/ptx-10, 1A9PTX10, concentration 0.5 ug/mL) was 96% and the inhibition at 0.5 µg/mL [4, 6] was 45%. For the same molecule, the inhibition at 1 µg/mL ([4]; Homo sapiens, MCF7, MCF-7 NCI-AR, concentration 1.0 ug/mL) was 65%, the inhibition at 2 µg/mL ([4]; Homo sapiens, MCF7, MCF-7 NCI-AR, concentration 2.0 ug/mL) was 94% and the “inhibition of cell growth against MDR sensitive cancer cell lines” value (from here on “inhibition of cell growth”) [5] was “excellent inhibition of cell growth”.
C=CC1O[C@H]2C[C@H]3OC[C@@]3(OC(C)=O)[C@H]3[C@H](OC(=O)c4ccccc4)[C@]4(O)C[C@H](OC(=O)[C@H](O)[C@@H](NC(=O)c5ccccc5)c5ccccc5)C(C)=C([C@H](OC(C)=O)[C@H](O1)[C@]23C)C4(C)C (stereo partly drawn) [TPI 285] gave an Inhibition ([4]; concentration 0.5 ug/mL) of 41%, an Inhibition ([4]; concentration 1.0 ug/mL) of 51% and an Inhibition ([4]; concentration 2.0 ug/mL) of 85%. The “inhibition of cell growth” value [5] was “excellent inhibition of cell growth”.
With C=CC1O[C@H]2C[C@H]3OC[C@@]3(OC(C)=O)[C@H]3[C@H](OC(=O)c4ccccc4)[C@]4(O)C[C@H](OC(=O)[C@H](O)[C@H](CC(C)C)NC(=O)OC(C)(C)C)C(C)=C([C@H](OC(C)=O)[C@H](O1)[C@]23C)C4(C)C (stereo partly drawn) [TPI 287, 7,9-acrolein acetal-10-α-acetyl-2′-R,S-hydroxy-3′-S-isobutyl-3′-N-t-butoxy carbonyl taxane] the inhibition at 0.05 µg/mL ([1]; Homo sapiens, concentration 0.05 ug/mL) was 58%, the inhibition at 0.1 µg/mL ([2]; Homo sapiens, 1A9/ptx-10, 1A9PTX10, concentration 0.1 ug/mL) was 51% and the inhibition at 0.2 µg/mL ([2]; Homo sapiens, 1A9/ptx-10, 1A9PTX10, concentration 0.2 ug/mL) was 85%. It also gave an inhibition at 0.05 µg/mL ([3]; Homo sapiens) of 56%, an inhibition at 0.031 µg/mL ([4]; Homo sapiens, MCF7, MCF-7 NCI-AR, concentration 0.031 ug/mL) of 13% and an inhibition at 0.061 µg/mL ([4]; Homo sapiens, MCF7, MCF-7 NCI-AR, concentration 0.061 ug/mL) of 22%. For the same molecule, the inhibition at 0.125 µg/mL ([4]; Homo sapiens, MCF7, MCF-7 NCI-AR, concentration 0.125 ug/mL) was 37%, the inhibition at 0.25 µg/mL ([4]; Homo sapiens, MCF7, MCF-7 NCI-AR, concentration 0.25 ug/mL) was 47% and the inhibition at 0.5 µg/mL [4, 6] was 80%. The “inhibition of cell growth” value [5] was “excellent inhibition of cell growth”.
